The text below walks through data of patent US20240382475A1, “Quinazoline Derivative, Or Preparation Method Therefor And Use Thereof” (Zhejiang Hisun Pharmaceutical Co., Ltd., priority 2021, published 2024).

The term IC50 denotes the midpoint of a concentration-inhibition curve.

One data set deals with OCI-AML5 cells. The experiment in a line: Inhibition of OCI-AML5 cell proliferation (CellTiter-Glo). Format: cell-based. The note with it: Homo sapiens, OCI-AML-5; OCI-AML5 cells (SOS1 N233Y mutation), 120 hours. As to the method: The following method was used to determine the influence of the compounds of the present invention on OCI-AML5 cells proliferation. OCI-AML5 cells (containing SOS1 N233Y mutation) were purchased from Nanjing Kebai Biotechnology Co., Ltd. and cultured in MEMα medium containing 10% fetal bovine serum, 100 U penicillin, and 100 μg/mL streptomycin. The activities of the cells were determined by CellTiter-Glo® Luminescent Cell Viability Assay Kit (Promega, Art. No. G7573).
The experimental method was operated according to the steps in the kit instruction, which were briefly described as follows: the test compounds were first dissolved in DMSO to prepare storage solutions of 10 mM, and then diluted with culture mediums to prepare test samples. The final concentrations of the compounds were 10000 nM to 0.15 nM. Cells in logarithmic phase were inoculated in a 96-well cell culture plate with 1,000 cells per well, after cultured overnight in 5% CO2 incubator at 37° C., the test compounds were added to the incubator to continue the culture for 120 hours. After the culture was completed, 50 μL of CellTiter-Glo detection solution was added to each well, shaken for 5 minutes and then stood for 10 minutes. Then, a Luminescence mode was used to read the luminescence values of each well of the samples on a microplate reader.

Another data set concerns p-ERK1/2 in DLD-1 cells. In words: Inhibition of p-ERK1/2 in DLD-1 cells (Cisbio Advanced phospho-ERK1/2 kit). In kind it is cell-based. Conditions: Homo sapiens; DLD-1 cells (KRAS G13D mutation), hEGF 5 nM stimulation; read-out: IC50 (nM) Inhibition on p-ERK½ in DLD-1 cells. From the text: The following method was used to determine the inhibition activities of the compounds of the present invention on p-ERK1/2 in DLD-1 cells. The Advanced phospho-ERK1/2 (Thr202/tyr2O4) kit (Art. No. 64AERPEH) from Cisbio was used in this method. Please refer to the kit instruction for detailed experimental operations. DLD-1 cells (containing KRAS G13D mutation) were purchased from the Cell Resource Center of Shanghai Institutes for Biological Sciences, Chinese Academy of Sciences.
The experimental process can be briefly described as follows: DLD-1 cells were cultured in RPMI 1640 complete medium containing 10% fetal bovine serum, 100 U penicillin, 100 μg/mL streptomycin and 1 mM Sodium Pyruvate. DLD-1 cells were plated in a 96-well plate at 30,000 cells per well, after cultured overnight in 5% CO2 incubator at 37° C. with complete culture medium. The test compounds were dissolved in DMSO to prepare storage solutions of 10 mM, and then diluted with RPMI 1640 basic mediums. 90 μL of RPMI 1640 basic mediums containing the test compounds at the corresponding concentration were added to each well. The final concentrations of the test compounds in the reaction system were 10,000 nM to 0.15 nM, and were placed in a cell culture incubator for 3 hours and 40 minutes. Subsequently, 10 μL of hEGF (purchased from Roche, Art. No. 11376454001) prepared with RPMI 1640 basic medium was added to a final concentration of 5 nM, and placed in the incubator for culturing for 20 minutes. The cell supernatant was discarded, and the cells were washed with PBS on ice-bath. Then, 45 μl of 1× cell phospho/total protein lysis buffer (component of Advanced phospho-ERK1/2 kit) was added to each well for lysis. The 96-well plate was placed on ice for 0.5 hours to lyse, and then the lysate was detected according to the instruction of the Advanced phospho-ERK1/2 (Thr202/tyr2O4) kit. Finally, the microplate reader was used in […] mode to measure the fluorescence intensity of each well emitting wavelengths of 620 nm and […] under the excitation wavelength of 304 nm, and the fluorescence intensity ratio 665/620 in each well was calculated. By comparing with the fluorescence intensity ratio of a control group (0.1% DMSO), the percentage inhibition rates of the test compounds at each concentration were calculated, and the IC50 values of the compounds were obtained by performing nonlinear regression analysis with logarithmic values of the compound concentration-inhibition rate by GraphPad Prism 5 software, which can be seen in Table 3.

The next data set deals with NCI-H358 cells. In words: Inhibition of NCI-H358 cell proliferation under 3D non-anchored conditions (CellTiter-Glo 3D). In kind it is cell-based. Conditions: Homo sapiens, NCI-H358 cells (KRAS G12C mutation), 120 hours. As to the method: The following method was used to determine the effects of the compounds of the present invention on NCI-H358 cell proliferation under three-dimensional (3D) non-anchored conditions. NCI-H358 cells (containing KRAS G12C mutation) were purchased from the Cell Resource Center of Shanghai Institutes for Biological Sciences, Chinese Academy of Sciences, and cultured in RPMI 1640 medium containing 10% fetal bovine serum, 100 U penicillin, 100 μg/mL streptomycin and 1 mM Sodium Pyruvate. The activities of the cells were determined by CellTiter-Glo® 3D Cell Viability Assay Kit (Promega, Art. No. G9683).
The experimental method was operated according to the steps in the kit instruction, which can be briefly described as follows: the test compounds were first dissolved in DMSO to prepare storage solutions of 10 mM, and then diluted with culture mediums to prepare test samples. The final concentrations of the compounds were 10000 nM to 0.15 nM. Cells in logarithmic phase were inoculated in an ultra-low adsorption 384-well cell culture plate (PerkinElmer, #3830) with 2000 cells per well, and the test compounds were added and cultured for 120 hours. After the culture was completed, 30 μL of CellTiter-Glo 3D detection solution was added to each well, shaken for 30 minutes and then stood for 120 minutes. Then, a Luminescence mode was used to read the luminescence values of each well of the samples on a microplate reader. By comparing with the numerical value of a control group (0.1% DMSO), the percentage inhibition rates of the compounds at each concentration were calculated, and the IC50 values of the compounds inhibiting cell proliferation were obtained by performing nonlinear regression analysis with logarithmic values of the compound concentration-inhibition rate by GraphPad Prism 5 software, which can be seen in Table 4.
A general note: Cellular ATP, detected with luciferase, serves as a proxy for viable cell number.

Data set [1] can be described thus: Pharmacokinetic evaluation in ICR mice. Format: in vivo. Conditions: male, mouse, plasma, PO 10 mg/kg; for AUC(0-t): read-out: Area under curve AUC0-t; for half-life: read-out: Half-life T1/2 (converted); for Cmax: read-out: Plasma concentration Cmax. From the text: ICR normal mice were used as test animals, and LC/MS/MS was used to determine the drug concentrations at different moments in plasma of ICR mice by intragastric administration. The pharmacokinetic behavior of the compounds of the present invention in ICR mice was studied to evaluate the pharmacokinetic characteristics of the above compounds.
Compound 4, Compound 26 and Compound 32.
ICR mice, male, 27.8-38 g, were purchased from Zhejiang Vital River Laboratory Animal Technology Co., Ltd.
An appropriate amount of the compound was weighed, and DMA:30% Solutol HS-15:Saline=5:5:90 (v/v/v) was used as the solvent to prepare a fully dissolved solution, and then administered to obtain a 1 mg/mL colorless solution.
The ICR mice in the intragastric group of each compound to be tested (nine mice in each group) were fasted overnight followed by intragastric administration (administration dosage was 10 mg/kg and the administration volume was 10 mL/kg), and ate 4 hours after administration.
0.1 mL of blood was collected via orbit before administration and 0.25 hour, 0.5 hour, 1 hour, 2 hours, 4 hours, 8 hours, 12 hours, and 24 hours after administration, and placed in EDTA-K2 anticoagulant tubes. The collected blood samples were placed on ice, and plasma was separated by centrifugation (centrifugation condition: 1500 g, 10 minutes). The collected plasma samples were stored at −40˜−20° C. before analysis.
(§1) LC-MS/MS was used to determine the content of the compound to be tested in mouse plasma after intragastric administration.

A short description of data set [2]: Pharmacokinetic evaluation in Balb/c mice. Format: in vivo. The note with it: male, mouse, plasma, PO 10 mg/kg; for AUC(0-t): read-out: Area under curve AUC0-t; for half-life: read-out: Half-life T1/2 (converted); for Cmax: read-out: Plasma concentration Cmax.
Source text: Balb/c normal mice were used as test animals, and LC/MS/MS was used to determine the drug concentrations at different moments in plasma of balb/c mice by intragastric administration. The pharmacokinetic behavior of the compounds of the present invention in Balb/c mice was studied to evaluate the pharmacokinetic characteristics of the above compounds.
Compound 27 and Compound 30.
Nine Balb/c normal mice, male, were evenly divided into 3 groups, with 3 mice in each group, purchased from Zhejiang Vital River Laboratory Animal Technology Co., Ltd.
An appropriate amount of the compound was weighed, and DMA:30% Solutol HS-15:Saline=5:5:90 (v/v/v) was used as the solvent to prepare a fully dissolved solution with a concentration of 1 mg/mL.
The mice in the intragastric group of each compound to be tested (nine mice in each group) were fasted overnight followed by intragastric administration (administration dosage was 10 mg/kg and the administration volume was 10 mL/kg), and ate 4 hours after administration.
0.1 mL of blood was collected via jugular vein before administration and 0.25 hour, 0.5 hour, 1 hour, 2 hours, 4 hours, 6 hours, 8 hours, and 24 hours after administration, and placed in 0.1% sodium heparin anticoagulant test tubes. The collected blood samples were placed on ice, and plasma was separated by centrifugation (centrifugation condition: 7000 g, 5 minutes). The collected plasma samples were stored at −80° C. before analysis.
as §1

On to `COc1cc2nc(C)nc(N[C@H](C)c3cccc(C#N)c3C)c2cc1N1CCC(C(=O)N(C)C)CC1` [Compound 22, (R)-1-(4-((1-(3-cyano-2-methylphenyl)ethyl)amino)-7-methoxy-2-methylquinazolin-6-yl)-N, N-dimethylpiperidine-4-carboxamide], for which the IC50 turned out to be 7.2 nM with OCI-AML5 cells, 20.9 nM in the data set on p-ERK1/2 in DLD-1 cells and 15.1 nM in the data set on NCI-H358 cells.

The compound `CC(=O)c1cc2nc(C)nc(N[C@H](C)c3cccc(C#N)c3C)c2cc1N1CCC2(CC1)COC2` [Compound 26, (R)-3-(1-((7-acetyl-2-methyl-6-(2-oxa-7-azaspiro[3.5]nonan-7-yl)quinazolin-4-yl)amino)ethyl)-2-methylbenzonitrile] displayed an IC50 in the data set with OCI-AML5 cells of 17.4 nM. For the same compound, in data set [1], the AUC(0-t) worked out at 7700 ng·h/mL, the half-life was 1.98 h and the Cmax was 2830 ng/mL.

Turning to `COc1cc2nc(C)nc(N[C@H](C)c3cccc(C#N)c3C)c2cc1N1CCC(N2CCN(C(C)=O)CC2)CC1` [Compound 27, (R)-3-(1-((6-(4-(4-acetylpiperazin-1-yl)piperidin-1-yl)-7-methoxy-2-methylquinazolin-4-yl)amino)ethyl)-2-methylbenzonitrile], in the data set on p-ERK1/2 in DLD-1 cells, the IC50 is 31.2 nM. In data set [2], the AUC(0-t) worked out at 4660 ng·h/mL, the half-life was 4.91 h and the Cmax was found to be 1150 ng/mL.

As for `CCOC(=O)N1CCN(c2cc3c(N[C@H](C)c4cccc(C#N)c4C)nc(C)nc3cc2OC)CC1` [Compound 30, ethyl (R)-4-(4-((1-(3-cyano-2-methylphenyl)ethyl)amino)-7-methoxy-2-methylquinazolin-6-yl)piperazine-1-carboxylate], in data set [2], the AUC(0-t) is 10800 ng·h/mL, the half-life was 0.79 h and the Cmax amounted to 4660 ng/mL.

Turning to `COc1cc2nc(C)nc(N[C@H](C)c3cccc(C#N)c3C)c2cc1C1(OC)CCN(C(C)=O)CC1` [Compound 32, (R)-3-(1-((6-(1-acetyl-4-methoxypiperidin-4-yl)-7-methoxy-2-methylquinazolin-4-yl)amino)ethyl)-2-methylbenzonitrile], in data set [1], the AUC(0-t) worked out at 22100 ng·h/mL, the half-life was 2.29 h and the Cmax came out at 5610 ng/mL.
